Test [1] has as its system HT1080 tumors expressing HA-SSTR2 wild-type, HA-D314 or vector. As for the experimental part:
(§1) Stably transfected HT1080 cells were implanted subcutaneously in nude mice (three tumors, HA-wt, HA-D314, vector, per animal). When tumors were palpable, daily injections of the somatostatin analogue sandostatin were initiated and tumors were measured by calipers every two days.
(§2) Stably transfected HT1080 cells were implanted subcutaneously in nude mice (three tumors, HA-wt, HA-D314, vector, per animal).
(§3) Stably transfected HT1080 cells were implanted subcutaneously in nude mice (three tumors, HA-wt, HA-D314, vector, per animal). When tumors were palpable, 90Y-octreotate was given once at a dose of 1 mCi (FIG. 7A) or twice at doses of 2 mCi and 1 mCi (FIG. 7B).
as §1, §2, §3

The test system of test [2] is HT1080 cells (fibrosarcoma cells that do not endogenously express SSTR2). Briefly: MTT cell growth assay of HT1080 cells transfected with HA-SSTR2 wild-type or C-terminal deletions. In kind it is cell-based. As to conditions: 5% FBS, with or without 100 nM sandostatin, three days. How it is done: Three days later, MTT assay was used to determine cell number.
In the following experiments, HA-tagged receptors were used.
(§4) Two days after transient transfection with HA-SSTR2D351 or HA-SSTR2D340, 3000 HT1080 cells were grown in the presence of 5% FBS with or without 100 nM of the somatostatin analogue sandostatin. Three days later, MTT assay was used to determine cell number.
On the technique in general: Formazan colour is commonly taken as a measure of viable cells.

A further test has as its system HeyA8 tumors. Briefly: Growth of HeyA8 tumors injected with adenovirus expressing HA-SSTR2delta340. It counts as in vivo. The following applies: HeyA8 tumors in nude mice, intratumoral adenovirus. As for the experimental part:
FIG. 12. Constitutively active SSTR2delta340 inhibits the growth of tumor cells. Nude mice were Injected subcutaneously with HeyA8 tumors cells and then each tumor was injected with adenovirus expressing HA-SSTR2delta340 or control inserts (8 tumors per group). Tumor size was measured by calipers. *p<0.05, tumors injected with adv-HA-SSTR2delta340 and given saline vs tumors injected with adv-GFP and given saline; for clarity only the comparison of these two groups is illustrated with *.
as §4

The test system of test [3] is Mouse ES cell-derived tumors expressing HA-SSTR2 or HA-SSTR2delta314. Briefly: Growth of embryonic stem cell-derived teratomas measured by calipers. In kind it is in vivo, nude mice. As to conditions: tumors derived from wild type ES cells, i.v. twice. As for the experimental part: Mouse ES cells (these are pluripotent stem cells that can be used to create transgenic mice and like most ES cells result in teratomas when injected in nude mice) were transfected with a plasmid containing HA-SSTR2 or HA-SSTR2delta314. Clones were then selected for expression. The cells were then injected into nude mice subcutaneously and tumor size was measured by calipers. After tumors were present in three locations per mouse in all 8 mice, the animals were injected i.v. with 90-Y labeled octreotate two days and 5 days later.
After tumors were present in three locations per mouse in all 8 mice, the animals were injected i.v. with 90-Y labeled octreotate two days and 5 days later as on the chart. Tumor size was measured by calipers. Unlike many stem cells, embryonic stem cells (ES) more commonly form teratomas. Inhibition of growth of established teratomas was assessed.

Test [4] has as its system Human ovarian cancer (Hey A8) tumors incorporating HS5 cells. Briefly: Growth of Hey A8 tumors co-injected with HS5 cells expressing or not expressing HA-SSTR2D314. It counts as in vivo, nude mice. As to conditions: intravenous. From the text: FIG. 8: Stem cells expressing the signaling deficient mutant SSTR2D314 incorporate into tumor and can be targeted with a therapeutic for Inhibiting tumor growth.
Stem cells expressing the signaling deficient mutant SSTR2D314 incorporated into tumor and can be targeted with a therapeutic for inhibiting tumor growth (FIG. 8). […] Human ovarian cancer (Hey A8) cells were co-injected subcutaneously in nude mice with HS5 cells expressing or not expressing HA-SSTR2D314. […] Once tumors were established, 90Y-octreotate was delivered intravenously. Tumors were measured by calipers every two days. Tumors incorporating HS5 cells expressing the HA-SSTR2D314 mutant were growth inhibited compared to control (*p<0.05, HeyA8+HS5-SSTR2D314 vs HeyA8+HS5vector). The incorporated stem cells, but not the tumor cells, serve as a target for the therapeutic.

The subject of test [5] is untransfected HT1080 cells admixed with HS5 cells. Put plainly: Bystander cell death, live/dead staining of HS5 mesenchymal stem cells admixed with untransfected HT1080 cells. In kind it is cell-based, human. As to conditions: HS5 stably expressing wild-type or signaling deficient HA-SSTR2 admixed with untransfected HT1080, 24 hours. As for the experimental part:
FIG. 4: Exposure to 90Y-DOTA-octreotate (DOTATATE) results in bystander cell death of tumor cells. Human mesenchymal stem cells (HS5) stably expressing wild-type or signaling deficient HA-SSTR2 receptors or transfected with vector were admixed with untransfected HT1080 cells and then exposed to 90Y-DOTATATE for 24 hours. Then, live (green)/dead (red) staining was performed.
Mixing mesenchymal stem cells expressing SSTR2 or the signaling deficient mutant delta 314 with untransfected tumor cells results in kill of rosettes of clusters of cells that are not seen if mesenchymal stem cells transfected with vector are used (FIG. 4), consistent with bystander killing. Human mesenchymal stem cells (HS5) stably expressing wild-type or signaling deficient HA-SSTR2 receptors or transfected with vector were admixed with untransfected HT1080 cells and then exposed to 90Y-DOTATATE for 24 hours.

Test [6] deals with Human ovarian cancer (Hey A8) tumors to which HS5 cells homed. Put plainly: Growth of Hey A8 tumors after systemic (intracardiac) injection of HS5 cells expressing or not expressing HA-SSTR2D314. In kind it is in vivo, nude mice. The following applies: HeyA8 tumors, intravenous. How it is done:
FIG. 9: Stem cells expressing the signaling deficient mutant SSTR2D314 home to and incorporate into tumor and can be targeted with a therapeutic for inhibiting tumor growth.
Stem cells expressing the signaling deficient mutant SSTR2D314 home to and incorporate into tumor and can be targeted with a therapeutic for inhibiting tumor growth (FIG. 9). […] Human ovarian cancer (Hey A8) cells on one side and vehicle on the other side were injected subcutaneously in nude. Two days later, human mesenchymal stem cells (HS5 cells) expressing or not expressing HA-SSTR2D314 were injected systemically (intracardiac). […] Tumors were seen on the side injected with HeyA8 cells. Once tumors were established, 90Y-octreotate was delivered intravenously. Tumors were measured by calipers every two days. Tumors to which HS5 cells expressing the HA-SSTR2D314 mutant homed and incorporated were growth inhibited compared to control (*p<0.05, HeyA8+HS5-SSTR2D314 vs HeyA8+HS5vector). The incorporated stem cells not the tumor cells serve as a target for the therapeutic.

Test [7] deals with HT1080 cells expressing wild-type or signaling deficient HA-SSTR2 receptors, or vector transfected. Briefly: Cell death by trypan blue uptake in stably transfected HT1080 cells. It counts as cell-based. As for the experimental part: Stably transfected HT1080 cells were exposed to different amounts of ^90Y-DOTATATE for 1 hour and 72 hours.
[8] abbreviates: stably transfected HT1080 cells.

Entries after “also recorded” stand apart in the source; their conditions may differ. Like-named read-outs stand apart in the source and are kept apart here.

With octreotide, the “tumor growth (calipers)” value is “no decrease in tumor size was seen” in test [1] (tumors expressing signaling deficient receptor (HA-D314), daily injections); “inhibited growth of tumors expressing wild-type receptor” in test [1] (tumors expressing wild-type receptor, daily injections); “not the signaling deficient receptor or tumors derived from vector transfected cells” in test [1] (tumors from vector transfected cells, daily injections).
Consider “HA-SSTR2D314: signaling deficient human SSTR2 truncated carboxy terminal to amino acid 314 (amino acids 1-314 of SEQ ID NO:6), HA-tagged”, for which the “cell growth (cell number by MTT assay)” value in test [2] (setting [8]) is listed as “does not inhibit cellular growth upon ligand stimulation”.
For “HA-SSTR2D340: constitutively active human SSTR2 mutant, C-terminal amino acids after position 340 deleted (amino acids 1-340 of SEQ ID NO:6), HA-tagged”, the “tumor growth (size by calipers)” value in the test with HeyA8 tumors is listed as “inhibits the growth of tumor cells in vivo”. Besides, the entries for the “cell growth (cell number by MTT assay)” value in test [2] (setting [8]) and in test [2] (transiently transfected HT1080 cells) were “inhibits growth even without ligand stimulation” and “inhibit growth even without ligand stimulation”, respectively.
Consider [^90Y-DOTA]-octreotate [90Y-DOTATATE], for which the “teratoma growth (calipers)” value in test [3] is “not tumors derived from wild type ES cells”. Further, the “tumor growth (calipers)” value in test [4] (HeyA8+HS5-SSTR2D314 co-injected subcutaneously) is “inhibited growth of human tumors incorporating HS5 human mesenchymal stem cells expressing SSTR2D314”; in test [4] (HeyA8+control HS5 (vector) co-injected subcutaneously), “not control HS5 cells”; in test [1] (tumors expressing signaling deficient receptor (HA-D314), once 1 mCi or twice 2 mCi and 1 mCi, listed as 90Y-octreotate), “inhibited growth of tumors expressing wild-type or signaling deficient receptors; also recorded: decreased in size in a dose dependent manner”; in test [1] (tumors expressing wild-type receptor, once 1 mCi or twice 2 mCi and 1 mCi) it was “inhibited growth of tumors expressing wild-type or signaling deficient receptors”; in test [1] (tumors from vector transfected cells, once 1 mCi or twice 2 mCi and 1 mCi) it was “not tumors derived from vector transfected cells”; in test [6] (HS5 expressing HA-SSTR2D314 injected intracardiac) it was “inhibited growth of human tumors to which human mesenchymal stem cells expressing HA-SSTR2D314 homed and incorporated”. Besides, the “tumor growth (calipers)” value in test [6] (control HS5 injected intracardiac) is on record as “not control HS5 cells”. For the same substance, the “bystander cell death (live/dead staining)” value in test [5] is listed as “Rosettes (clusters) of dead cells were seen”. For the same substance, the “cell death (trypan blue uptake)” value in test [7] (HT1080 cells expressing signaling deficient HA-SSTR2, exposure 1 hour and 72 hours) is “Dose dependent and time dependent killing was observed”; in test [7] (HT1080 cells expressing wild-type HA-SSTR2, exposure 1 hour and 72 hours), “Dose dependent and time dependent killing was observed”.
“wild-type SSTR2: HA-tagged wild-type (full length) human somatostatin receptor type 2”: the “cell growth (cell number by MTT assay)” value in test [2] (setting [8]) was “require ligand stimulation to inhibit growth”.

(Values after patent US12691179B2, “Somatostatin receptor-based cancer therapy” (Vikas Kundra, priority 2010, dated 2026).)
